According to PubChem BioAssay (NCI):
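Cultured in 96-well plates, cells were exposed to test compound for 48 hours across five concentrations. TGI: concentration producing complete growth inhibition.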

Assays:
Experiment in all cases: NCI tumour cell line growth inhibition, 48 h
TK-10 renal = test system: TK-10 renal
SW-620 colon = test system: SW-620 colon
SK-MEL-28 melanoma = test system: SK-MEL-28 melanoma
U251 CNS = test system: U251 CNS

Structure (SMILES) | TGI (TK-10 renal) [µM] | TGI (SW-620 colon) [µM] | TGI (SK-MEL-28 melanoma) [µM] | TGI (U251 CNS) [µM]
CC1(C)CN=C(Nc2ccc(F)c(F)c2)S1 | > 100 | > 100 | > 100 | > 100
COc1ccc(Nc2nc3ccccc3nc2C(=O)O)cc1OC | > 100 | > 100 | > 100 | > 100
O=C(O)c1ccc(Nc2nc3cc(C(F)(F)F)ccc3nc2-c2ccccc2)cc1 | 39.3 | 30.9 | > 100 | 34.2
O=[N+]([O-])c1cccc2nc3ccccc3c(NCCCN3CCCCC3)c12 | 0.0712 | 5.89 | – | 0.0734
NC(N)=NS(=O)(=O)c1ccc(NC(=O)c2ccc3[nH]c4ccccc4c(=O)c3c2)cc1 | > 100 | > 100 | > 100 | > 100
Cn1c2c3c(F)c(F)ccc3nc-2cc2ccccc21 | 3.91 | 12.4 | 18.3 | 12.9
CC(=O)Oc1c(C)c2c(c3ccccc13)OC(C)(C)C2 | 32.9 | 35.8 | 32.9 | 33.4
O=C(CCOS(=O)(=O)CF)N1CCN(C(=O)CCOS(=O)(=O)CF)CC1 | > 100 | > 100 | > 100 | > 100
C=C1CC(COc2ccc3c(C)cc(=O)oc3c2)(c2ccccc2)OC1=O (stereo unspecified) | 3.42 | 2.31 | 8.37 | 23.6
N#Cc1c(N)c(C#N)c2c(c1-c1ccc(Cl)cc1)COc1ccccc1-2 | 36.1 | > 100 | 37.4 | 32.7
COC(=O)[C@@H]1Cc2cc(O)c(O)cc2C2(CCN(C)CC2)O1 | > 10 | > 10 | > 10 | > 10
O=[N+]([O-])c1nccn1CCCNCCCn1ccnc1[N+](=O)[O-] | > 100 | > 100 | > 100 | > 100
O=C(N/N=C(/COc1cccc(Cl)c1)N=Cc1cccnc1)c1ccncc1 | > 100 | > 100 | > 100 | > 100
CC(=O)Nc1ccc2cc3[nH]c4cc(NC(C)=O)ccc4c3nc2c1 | > 100 | > 100 | > 100 | > 100
COc1cc(C23OCC(Cc4cc5c(cc42)OCO5)C3CO)cc(OC)c1OC (stereo unspecified) | > 100 | > 100 | > 100 | 43.8
COc1ccc(/C=C2/CCS(=O)(=O)c3ccc(C)cc3C2=O)cc1OC | 37.5 | > 100 | 56.5 | 42
C[C@]12CC/C(=N\OCCN3CCCCC3)C=C1CCC1C2CC[C@@]2(C)C1CC[C@]2(C)O (stereo partly specified) | 34 | 62.8 | 30.4 | 26.6
COc1ccc2c(c1)C(N)=C(Cc1ccncc1)C2=O | > 100 | > 100 | > 100 | > 100
COC(=O)c1c2c(cc3c1CC1(Cc4cc5c(cc4C1)CCC5)C3)CCC2 | > 100 | > 100 | > 100 | > 100
C=CCn1cnc2c(=O)[nH]c(Nc3ccccc3)nc21 | > 100 | > 100 | > 100 | > 100
CN(C)CCCNC(=O)c1cc(NC(=O)c2cc(NC(=O)[C@@H]3C[C@H]3C(=O)Nc3cc(C(=O)Nc4cc(C(=O)NCCCN(C)C)n(C)c4)n(C)c3)cn2C)cn1C | – | > 100 | > 100 | > 100
CCN(CC)C(=S)SS(=O)(=O)c1ccccc1[N+](=O)[O-] | > 90.3 | > 53.7 | 49.9 | > 56.2
O=C(/C=C/c1ccc(O)c(O)c1)NCCc1ccc(-c2ccccc2)cc1 | 63.3 | > 100 | > 100 | –
Cc1ccc(C)n1-n1c(-c2ccccc2)n[nH]c1=O | > 100 | > 100 | > 100 | > 100
CN(C)c1ccc(C2ON=C(c3ccccc3)N2C23CC4CC(CC(C4)C2)C3)cc1 (stereo unspecified) | > 10 | > 10 | > 10 | > 10

Structure (SMILES) | TGI (TK-10 renal) [µM] | TGI (SW-620 colon) [µM] | TGI (SK-MEL-28 melanoma) [µM] | TGI (U251 CNS) [µM]
CCOC(=O)NC(=S)c1ccc(O)c2ccccc12 | – | > 100 | > 100 | > 100
CCOC(=O)N1[C@@H]2CCC[C@@H]2C(=O)[C@@H]2CCC[C@@H]21 | – | > 100 | > 100 | > 100
CC(=O)OCC(OC(C)=O)C(OC(C)=O)C(OC(C)=O)C(/C=N\Nc1nc2ccccc2c(=O)[nH]1)=N/Nc1nc2ccccc2c(=O)[nH]1 (stereo unspecified) | – | > 100 | > 100 | > 100
Oc1ccc(-c2cn3cc(C(F)(F)F)ccc3n2)cc1 | > 100 | > 100 | > 100 | > 100
COC1(CC[C@H](C)COC2OC(CO)C(O)C(O)C2O)O[C@H]2C[C@H]3[C@@H]4CC=C5C[C@@H](OC6OC(CO)C(O)C(OC7OC(CO)C(O)C(O)C7O)C6OC6OC(C)C(O)C(O)C6O)CC[C@]5(C)[C@H]4CC[C@]3(C)[C@H]2[C@@H]1C (stereo partly specified) | > 69.7 | 5.87 | 6.74 | 4.02
O=C(O)CCC(NC(=O)c1ccc(CNc2nc3ccccc3nc2C(=O)O)cc1)C(=O)O (stereo unspecified) | > 100 | > 100 | > 100 | > 100
COc1ccc2nc3n(c2c1)C(c1c(Cl)cccc1Cl)SC3 (stereo unspecified) | > 100 | > 100 | > 100 | > 100
N#CCCN(CCC#N)c1ccc(C(N=Nc2ccc(Cl)cc2)=Nc2ccc(F)cc2)cc1 | > 100 | > 100 | > 100 | > 100
CC(NC(NC(C)C12CC3CC(CC(C3)C1)C2)=C(C(Cl)=C(Cl)Cl)[N+](=O)[O-])C12CC3CC(CC(C3)C1)C2 (stereo unspecified) | > 100 | 62.1 | > 75.5 | 12.6
Nc1ccccc1N=Nc1c(S(=O)(=O)O)cc2cc(S(=O)(=O)O)cc(O)c2c1O | > 100 | > 100 | > 100 | > 100
Cn1c(=O)oc2cc(Br)ccc21 | > 100 | > 100 | > 100 | –
Cc1cc2c(cc1C)C(=O)/C(=N/Nc1ccc(F)cc1)CCO2 | > 100 | > 100 | > 100 | > 100
CC1OC(O[C@H]2CC[C@]3(C=O)[C@H]4CC[C@]5(C)[C@H](C6=CC(=O)OC6)CC[C@]5(O)[C@@H]4C=C[C@]3(O)C2)CC(O)C1O (stereo partly specified) | 1.64 | 0.902 | 1.7 | 0.694
COc1ccc2c(CCNS(=O)(=O)c3ccccc3)c(C(C)=O)[nH]c2c1 | > 100 | > 100 | > 100 | > 100
O=C1C(Cl)=C(N2CCN(c3ccccn3)CC2)C(=O)c2ncccc21 | 9.75 | 3.79 | 4.38 | 15.2
COc1ccc(N2C(=O)/C(=C\c3cccc(Oc4ccccc4)c3)SC2c2ccccc2)cc1 (stereo unspecified) | > 100 | > 100 | > 100 | > 100
COC(=O)c1c(C(=O)OC)c2c3ccccc3n(C)c2c2c1c1ccccc1n2C | > 100 | > 100 | > 100 | > 100
Oc1cc(CN2COc3ccccc32)c(O)cc1CNC1CCCCC1 | 38 | > 100 | 45 | 32.5
O=[N+]([O-])c1sc2ccc(Cl)cc2c1Nc1ccc(Cl)cc1 | > 100 | > 100 | > 100 | > 100
COc1ccc(-c2nc(-c3cnccn3)n(COCCO)n2)cc1 | > 100 | > 100 | > 100 | > 100
C=C1CC(CN2CCC(=O)NC2=O)(c2ccccc2)OC1=O (stereo unspecified) | 19.1 | 4.78 | 27.3 | 32.1
CN(C)Cc1cc(N=Nc2ccc(Cl)cc2)ccc1O | 28.4 | 30.7 | 29.6 | 31.1
O=c1[nH]c(=O)n(C/C=C/CBr)nc1Br | 31.7 | 29.5 | 28.2 | 21.8
CC(=O)N=C1N(/C=C2\C(=O)Oc3ccccc3C2=O)C(=O)/C(=C/c2ccccc2Cl)N1C | – | > 100 | > 100 | > 100
COc1ccc(CNC(=O)[C@H](Cc2ccc(O)cn2)NC(C)=O)cc1 | > 100 | > 100 | > 100 | > 100

Structure (SMILES) | TGI (TK-10 renal) [µM] | TGI (SW-620 colon) [µM] | TGI (SK-MEL-28 melanoma) [µM] | TGI (U251 CNS) [µM]
N#Cc1c(-c2ccccc2)c(C#N)c(=O)n(C2OC(CO)C(O)C(O)C2O)c1S (stereo unspecified) | > 100 | > 100 | > 100 | –
Nc1c(N2CCCCC2)c(=O)nc2[nH]/c(=C\c3ccccc3)c(=O)n12 | > 100 | > 100 | > 100 | > 100
CC[C@@H](/C=C\CCC1(C[C@@H](N)CCC=C(C)C)OCCO1)O[Si](C(C)C)(C(C)C)C(C)C | 31.2 | 51.6 | 38.4 | 35.1
CC(=O)Oc1c2oc3cc(O)c(O)cc3c2c(OC(C)=O)c2oc3cc(O)c(O)cc3c12 | 32.9 | > 100 | 41.5 | 3.44
COc1ncnc2c1cnn2Cc1cn(CCCCO)nn1 | > 100 | > 100 | > 100 | > 100
CC(Oc1ccccc1Cl)C(=O)NN1C(=O)CSC1c1ccc(Cl)cc1 (stereo unspecified) | 55.9 | 55.2 | 49.2 | 31.6
COC(=O)c1cc(C)n(CN(Cc2ccccc2)Cn2nc(C(=O)OC)cc2C)n1 | > 100 | > 78 | > 100 | > 100
CN1C(=O)C23CCCCC2CC1(c1ccccc1)S3 (stereo unspecified) | > 100 | > 100 | > 100 | > 100
CC(=O)O[C@@H]1O[Si](C(C)(C)C)(C(C)(C)C)[C@H](C)[C@H]1C | > 100 | > 100 | > 100 | > 100
CCCCCCCCCc1c(O)c(O)c(CCCCCCCCC)c(CCCCCCCCC)c1CCCCCCCCC | > 100 | > 100 | > 100 | > 100
CCN(CC)COC(=S)S | > 100 | 78.1 | > 100 | > 100
Cc1cc(C)n(C(=O)CSc2nnc(SCC(=O)n3nc(C)cc3C)s2)n1 | > 100 | > 100 | > 100 | > 100
COc1cccc2cc(C(=O)Nc3ccccn3)c(=N)oc12 | > 100 | > 100 | > 100 | > 100
O=C1CN(c2ccc(Cl)cc2)C(=O)CN1NCNN1CC(=O)N(c2ccc(Cl)cc2)CC1=O | > 100 | > 100 | > 100 | > 100
Cc1cc(C)n(CN(Cn2nc(C)cc2C)c2ccccc2)n1 | > 100 | 69.8 | 34.7 | 44
NC(=S)NS(=O)(=O)c1ccc(F)cc1F | > 100 | > 100 | > 100 | > 100
O=C(O)C12C3CCC(O3)C1(C(=O)O)C1CCC2O1 (stereo unspecified) | > 100 | > 100 | > 100 | > 100
O=C1C(Cl)C(c2cc3cc(Br)ccc3nc2Cl)N1c1c(Cl)cccc1Cl (stereo unspecified) | > 25 | > 25 | > 25 | –
CCOC(=O)c1[nH]c2nc(SC)nc(Nc3ccccc3Cl)c2c1N | 56.3 | > 100 | > 100 | 31
Cc1c(-c2ccccc2)c(C#N)c2nnn(-c3cccc(Cl)c3)c(=O)n12 | > 100 | > 100 | > 100 | > 100
CCC1=NC(C(F)(F)F)(C(F)(F)F)N=C(/N=C(/N)N(C)C(C(C)C)P(=O)(OC(C)C)OC(C)C)O1 (stereo unspecified) | > 100 | > 100 | > 100 | > 100
O=C(CN(c1ccc(S(=O)(=O)O)cc1)c1ccc(S(=O)(=O)O)cc1)Nn1cnc2ccc(S(=O)(=O)N(c3ccc(S(=O)(=O)O)cc3)c3ccc(S(=O)(=O)O)cc3)cc2c1=O | > 100 | > 100 | > 100 | > 100
CC(C)(C)NC(=O)C12C3C4C1C1C2C3C41C(=O)NC(C)(C)C (stereo unspecified) | > 100 | > 100 | > 100 | > 100
COc1ccccc1NC(=S)Nc1cc(C)ccn1 | > 100 | > 100 | > 100 | > 100
